Measurements as given in ChEMBL document CHEMBL1142268, “Histone deacetylase inhibitors: from bench to clinic” (J Med Chem, 2008).
pEC50, pIC50: −log10 of the molar value. Active and inactive are the calls of the source. No cut-off for these calls is given here.

Experiments:
[1] = Metabolic stability in human liver microsomes; format: ADME, Microsome
[2] = molecular target: T1, Histone deacetylase 1 (Homo sapiens, UniProt Q13547); test: Inhibition of HDAC1 from human HeLa cells; format: cell-based
[3] = test system: HCT-116; test: Inhibition of human HCT116 cells; format: functional, cell-based
[4] = test system: A549; test: Antitumor activity against human A549 cells xenografted in nude mouse model at 70 mg/kg, po; format: functional; details: read-out: TGI
[5] = test system: SW48; test: Antitumor activity against human SW48 cells xenografted in nude mouse model at 60 mg/kg, po; format: functional; details: read-out: TGI
[6] = test system: HCT-116; test: Antitumor activity against human HCT116 cells xenografted in nude mouse model at 20 mg/kg, ip; format: functional; details: HCT-116, ip, route intraperitoneal, read-out: TGI
[7] = test system: SW48; test: Antitumor activity against human SW48 cells xenografted in nude mouse model at 25 mg/kg, ip; format: functional; details: route intraperitoneal, read-out: TGI
[8] = molecular target: Histone deacetylase 8 (Homo sapiens) (UniProt Q9BY41)
[9] = molecular target: T1, Histone deacetylase 1
[10] = molecular target: Histone deacetylase (Homo sapiens) (UniProt Q13547+O15379+Q9UBN7+Q92769+Q9UQL6+Q8WUI4+Q9BY41+Q96DB2+P56524+Q9UKV0+Q969S8); test: Inhibition of HDAC from human HeLa cells at 1000 nM; format: cell-based
[11] = test system: LOX IMVI; test: Inhibition of human LOX-IMVI cells; format: functional, cell-based
[12] = test system: NCI-H226; test: Inhibition of human NCI-H226 cells; format: functional, cell-based
[13] = test system: St-4; test: Inhibition of human St4 cells; format: functional, cell-based
[14] = Inhibition of human RFX631L cells; format: functional
[15] = test system: SNB-78; test: Inhibition of human SNB78 cells; format: functional, cell-based
[16] = test system: DU-145; test: Inhibition of human DU145 cells; format: functional, cell-based
[17] = test system: MDA-MB-231; test: Inhibition of human MDA-MB-231 cells; format: functional, cell-based
[18] = test system: SK-OV-3; test: Inhibition of human SKOV3 cells; format: functional, cell-based
[19] = test system: NCI-H460; test: Inhibition of human NCI-H460 cells; format: functional, cell-based
[20] = test system: HCT-116; test: Antitumor activity against human HCT116 cells xenografted in ip dosed nude mouse assessed as tumor volume inhibition; format: functional
[21] = molecular target: Histone deacetylase 7 (Homo sapiens, UniProt Q8WUI4)
[22] = molecular target: Histone deacetylase 4 (Homo sapiens, UniProt P56524)
[23] = molecular target: Histone deacetylase 5 (Homo sapiens, UniProt Q9UQL6)
[24] = molecular target: T2, Histone deacetylase 8 (Homo sapiens, UniProt Q9BY41)
T2 sequence (Q9BY41 whole entry): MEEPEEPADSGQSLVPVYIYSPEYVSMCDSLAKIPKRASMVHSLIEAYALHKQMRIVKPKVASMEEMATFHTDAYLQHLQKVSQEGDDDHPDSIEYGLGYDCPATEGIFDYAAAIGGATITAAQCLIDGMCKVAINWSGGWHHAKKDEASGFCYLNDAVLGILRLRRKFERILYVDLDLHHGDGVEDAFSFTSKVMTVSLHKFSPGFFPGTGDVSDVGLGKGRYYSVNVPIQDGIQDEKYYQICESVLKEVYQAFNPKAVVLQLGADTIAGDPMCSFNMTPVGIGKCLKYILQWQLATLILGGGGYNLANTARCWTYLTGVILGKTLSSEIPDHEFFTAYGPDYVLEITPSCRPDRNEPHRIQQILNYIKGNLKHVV

[25] = test system: HeLa; test: Inhibition of human HeLa cells; format: functional, cell-based
[26] = test system: HL-60; test: Inhibition of human HL60 cells; format: functional
[27] = molecular target: T3, Protein deacetylase HDAC6 (Homo sapiens, UniProt Q9UBN7)
T3 sequence (Q9UBN7 whole entry): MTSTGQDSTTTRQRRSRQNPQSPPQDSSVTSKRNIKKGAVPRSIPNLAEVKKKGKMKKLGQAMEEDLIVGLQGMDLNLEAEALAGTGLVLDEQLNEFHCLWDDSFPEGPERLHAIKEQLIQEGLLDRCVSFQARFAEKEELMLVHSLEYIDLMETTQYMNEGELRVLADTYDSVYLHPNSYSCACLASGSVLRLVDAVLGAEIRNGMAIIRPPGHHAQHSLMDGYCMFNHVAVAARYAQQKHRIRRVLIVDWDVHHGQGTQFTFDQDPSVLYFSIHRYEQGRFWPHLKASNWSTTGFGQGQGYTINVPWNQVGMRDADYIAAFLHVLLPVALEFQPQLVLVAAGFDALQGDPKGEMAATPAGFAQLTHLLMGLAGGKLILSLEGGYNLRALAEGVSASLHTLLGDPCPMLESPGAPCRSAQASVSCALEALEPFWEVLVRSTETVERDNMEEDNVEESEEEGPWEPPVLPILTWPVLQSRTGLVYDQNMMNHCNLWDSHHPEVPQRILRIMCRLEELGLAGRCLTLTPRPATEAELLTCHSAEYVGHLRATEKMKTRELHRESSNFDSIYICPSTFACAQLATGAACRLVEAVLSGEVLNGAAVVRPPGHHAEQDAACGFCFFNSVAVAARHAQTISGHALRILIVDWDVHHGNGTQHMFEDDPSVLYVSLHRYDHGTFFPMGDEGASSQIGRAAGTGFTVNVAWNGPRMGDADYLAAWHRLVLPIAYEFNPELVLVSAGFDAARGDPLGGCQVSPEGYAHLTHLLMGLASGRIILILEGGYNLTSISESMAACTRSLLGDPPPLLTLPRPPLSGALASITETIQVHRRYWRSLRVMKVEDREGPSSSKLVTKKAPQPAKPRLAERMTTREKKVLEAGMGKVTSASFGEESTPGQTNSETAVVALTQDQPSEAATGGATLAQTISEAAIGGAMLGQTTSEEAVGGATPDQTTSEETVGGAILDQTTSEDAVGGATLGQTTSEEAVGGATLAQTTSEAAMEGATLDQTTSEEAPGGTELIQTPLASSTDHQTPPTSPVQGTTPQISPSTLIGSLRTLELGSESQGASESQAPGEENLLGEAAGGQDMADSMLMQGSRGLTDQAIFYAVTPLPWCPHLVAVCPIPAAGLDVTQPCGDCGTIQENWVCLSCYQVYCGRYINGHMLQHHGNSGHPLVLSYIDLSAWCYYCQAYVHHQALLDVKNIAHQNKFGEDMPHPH

[28] = molecular target: Histone deacetylase 3 (Homo sapiens, UniProt O15379)
[29] = molecular target: Cytochrome P450 3A4 (Homo sapiens, UniProt P08684); test: Inhibition of CYP3A4; format: ADME
[30] = test system: MKN-45; test: Antiproliferative activity against human MKN45 cells; format: functional, cell-based

T1 sequence (Q13547 whole entry): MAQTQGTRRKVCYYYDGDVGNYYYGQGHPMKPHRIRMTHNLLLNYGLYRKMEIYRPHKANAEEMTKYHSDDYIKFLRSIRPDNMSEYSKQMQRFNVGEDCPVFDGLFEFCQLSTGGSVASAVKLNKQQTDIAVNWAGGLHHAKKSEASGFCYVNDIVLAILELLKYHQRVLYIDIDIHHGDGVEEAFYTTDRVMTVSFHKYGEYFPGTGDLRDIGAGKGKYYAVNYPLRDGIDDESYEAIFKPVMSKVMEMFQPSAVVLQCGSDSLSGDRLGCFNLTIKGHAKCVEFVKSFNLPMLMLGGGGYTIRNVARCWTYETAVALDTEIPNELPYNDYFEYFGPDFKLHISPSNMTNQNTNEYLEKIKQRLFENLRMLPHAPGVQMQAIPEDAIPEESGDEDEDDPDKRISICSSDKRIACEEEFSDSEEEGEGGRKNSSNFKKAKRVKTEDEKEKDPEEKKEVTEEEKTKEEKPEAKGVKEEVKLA
Cytochrome P450 3A4, sequence (P08684 whole entry): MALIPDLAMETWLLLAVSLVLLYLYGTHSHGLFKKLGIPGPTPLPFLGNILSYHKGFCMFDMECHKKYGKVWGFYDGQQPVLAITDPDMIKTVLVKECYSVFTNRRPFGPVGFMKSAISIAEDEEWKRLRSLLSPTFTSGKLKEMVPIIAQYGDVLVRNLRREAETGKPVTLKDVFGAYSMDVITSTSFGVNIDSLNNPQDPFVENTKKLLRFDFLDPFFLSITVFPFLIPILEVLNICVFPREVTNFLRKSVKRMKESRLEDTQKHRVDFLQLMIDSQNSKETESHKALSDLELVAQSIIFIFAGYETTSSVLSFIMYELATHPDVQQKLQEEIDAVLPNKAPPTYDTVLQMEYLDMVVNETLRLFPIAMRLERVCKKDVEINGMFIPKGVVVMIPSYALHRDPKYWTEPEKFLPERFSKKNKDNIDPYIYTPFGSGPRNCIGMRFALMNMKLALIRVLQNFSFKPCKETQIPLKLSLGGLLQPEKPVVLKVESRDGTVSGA
Histone deacetylase 4, sequence (P56524 whole entry): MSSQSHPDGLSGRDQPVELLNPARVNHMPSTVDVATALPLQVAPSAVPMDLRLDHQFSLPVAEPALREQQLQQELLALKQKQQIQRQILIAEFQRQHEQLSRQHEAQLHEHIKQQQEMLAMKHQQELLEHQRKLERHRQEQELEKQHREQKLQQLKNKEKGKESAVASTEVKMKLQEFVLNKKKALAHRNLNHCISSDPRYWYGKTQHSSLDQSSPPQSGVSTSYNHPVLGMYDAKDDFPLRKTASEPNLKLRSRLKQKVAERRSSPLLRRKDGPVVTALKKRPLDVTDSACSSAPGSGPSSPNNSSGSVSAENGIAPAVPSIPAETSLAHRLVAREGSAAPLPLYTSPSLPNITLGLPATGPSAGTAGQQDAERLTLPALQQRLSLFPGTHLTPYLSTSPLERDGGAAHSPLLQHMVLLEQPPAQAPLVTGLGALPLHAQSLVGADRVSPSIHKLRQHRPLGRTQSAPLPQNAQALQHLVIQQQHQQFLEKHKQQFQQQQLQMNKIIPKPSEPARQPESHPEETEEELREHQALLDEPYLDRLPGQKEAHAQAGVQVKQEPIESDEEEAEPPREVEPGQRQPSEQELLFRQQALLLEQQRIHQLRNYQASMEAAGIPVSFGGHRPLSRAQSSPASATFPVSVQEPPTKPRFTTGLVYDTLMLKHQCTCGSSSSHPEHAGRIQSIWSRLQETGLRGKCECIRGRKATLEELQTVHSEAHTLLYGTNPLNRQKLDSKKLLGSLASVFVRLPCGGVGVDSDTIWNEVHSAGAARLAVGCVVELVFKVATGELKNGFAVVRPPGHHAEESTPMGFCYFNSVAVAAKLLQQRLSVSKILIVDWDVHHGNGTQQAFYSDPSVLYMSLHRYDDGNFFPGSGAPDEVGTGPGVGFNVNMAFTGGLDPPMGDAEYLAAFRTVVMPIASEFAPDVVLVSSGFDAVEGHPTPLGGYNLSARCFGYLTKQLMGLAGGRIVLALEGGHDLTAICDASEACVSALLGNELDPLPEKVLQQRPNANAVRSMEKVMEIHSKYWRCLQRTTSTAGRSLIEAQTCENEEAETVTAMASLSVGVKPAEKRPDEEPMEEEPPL
Histone deacetylase 3, sequence (O15379 whole entry): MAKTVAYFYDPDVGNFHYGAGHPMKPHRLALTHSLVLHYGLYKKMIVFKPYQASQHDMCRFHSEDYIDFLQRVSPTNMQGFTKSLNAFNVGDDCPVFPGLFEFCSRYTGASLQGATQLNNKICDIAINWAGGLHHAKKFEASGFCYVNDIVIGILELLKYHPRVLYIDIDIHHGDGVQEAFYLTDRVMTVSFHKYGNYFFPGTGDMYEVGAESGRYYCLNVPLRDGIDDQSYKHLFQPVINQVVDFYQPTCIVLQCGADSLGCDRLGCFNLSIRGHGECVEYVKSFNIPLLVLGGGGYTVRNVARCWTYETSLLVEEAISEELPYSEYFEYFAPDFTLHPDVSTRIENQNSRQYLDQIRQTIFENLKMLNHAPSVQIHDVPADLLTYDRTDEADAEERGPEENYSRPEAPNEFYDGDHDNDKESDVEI
Histone deacetylase 5, sequence (Q9UQL6 whole entry): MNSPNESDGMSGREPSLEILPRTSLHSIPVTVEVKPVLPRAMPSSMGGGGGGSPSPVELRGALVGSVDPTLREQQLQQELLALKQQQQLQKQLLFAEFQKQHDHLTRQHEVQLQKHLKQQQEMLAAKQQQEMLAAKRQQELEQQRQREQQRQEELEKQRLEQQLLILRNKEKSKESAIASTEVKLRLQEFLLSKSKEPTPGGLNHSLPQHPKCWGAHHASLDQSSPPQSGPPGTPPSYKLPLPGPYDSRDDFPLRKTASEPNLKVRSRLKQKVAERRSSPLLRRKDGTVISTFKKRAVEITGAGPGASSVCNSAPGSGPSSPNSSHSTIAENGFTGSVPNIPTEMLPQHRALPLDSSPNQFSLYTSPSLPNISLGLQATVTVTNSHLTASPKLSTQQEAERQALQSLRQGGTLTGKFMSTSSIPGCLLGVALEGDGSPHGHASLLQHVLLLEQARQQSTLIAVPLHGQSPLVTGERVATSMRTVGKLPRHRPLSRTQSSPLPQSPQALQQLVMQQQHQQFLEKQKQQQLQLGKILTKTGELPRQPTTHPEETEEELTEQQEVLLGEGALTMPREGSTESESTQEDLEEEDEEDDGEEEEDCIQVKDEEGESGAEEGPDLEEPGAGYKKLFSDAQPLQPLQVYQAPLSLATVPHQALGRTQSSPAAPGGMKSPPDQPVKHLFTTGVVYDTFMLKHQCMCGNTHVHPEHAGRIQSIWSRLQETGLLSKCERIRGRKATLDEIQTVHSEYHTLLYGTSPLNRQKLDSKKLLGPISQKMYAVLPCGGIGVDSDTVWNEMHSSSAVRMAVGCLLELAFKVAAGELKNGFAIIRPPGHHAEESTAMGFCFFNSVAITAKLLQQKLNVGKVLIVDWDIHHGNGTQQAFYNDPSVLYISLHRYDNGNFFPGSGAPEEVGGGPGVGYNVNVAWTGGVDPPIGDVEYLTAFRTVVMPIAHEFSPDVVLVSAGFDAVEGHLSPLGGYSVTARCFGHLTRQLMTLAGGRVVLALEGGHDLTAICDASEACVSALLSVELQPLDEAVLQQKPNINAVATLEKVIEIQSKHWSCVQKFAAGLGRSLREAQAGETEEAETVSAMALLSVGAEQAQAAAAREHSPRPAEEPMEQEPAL
Histone deacetylase 7, sequence (Q8WUI4 whole entry): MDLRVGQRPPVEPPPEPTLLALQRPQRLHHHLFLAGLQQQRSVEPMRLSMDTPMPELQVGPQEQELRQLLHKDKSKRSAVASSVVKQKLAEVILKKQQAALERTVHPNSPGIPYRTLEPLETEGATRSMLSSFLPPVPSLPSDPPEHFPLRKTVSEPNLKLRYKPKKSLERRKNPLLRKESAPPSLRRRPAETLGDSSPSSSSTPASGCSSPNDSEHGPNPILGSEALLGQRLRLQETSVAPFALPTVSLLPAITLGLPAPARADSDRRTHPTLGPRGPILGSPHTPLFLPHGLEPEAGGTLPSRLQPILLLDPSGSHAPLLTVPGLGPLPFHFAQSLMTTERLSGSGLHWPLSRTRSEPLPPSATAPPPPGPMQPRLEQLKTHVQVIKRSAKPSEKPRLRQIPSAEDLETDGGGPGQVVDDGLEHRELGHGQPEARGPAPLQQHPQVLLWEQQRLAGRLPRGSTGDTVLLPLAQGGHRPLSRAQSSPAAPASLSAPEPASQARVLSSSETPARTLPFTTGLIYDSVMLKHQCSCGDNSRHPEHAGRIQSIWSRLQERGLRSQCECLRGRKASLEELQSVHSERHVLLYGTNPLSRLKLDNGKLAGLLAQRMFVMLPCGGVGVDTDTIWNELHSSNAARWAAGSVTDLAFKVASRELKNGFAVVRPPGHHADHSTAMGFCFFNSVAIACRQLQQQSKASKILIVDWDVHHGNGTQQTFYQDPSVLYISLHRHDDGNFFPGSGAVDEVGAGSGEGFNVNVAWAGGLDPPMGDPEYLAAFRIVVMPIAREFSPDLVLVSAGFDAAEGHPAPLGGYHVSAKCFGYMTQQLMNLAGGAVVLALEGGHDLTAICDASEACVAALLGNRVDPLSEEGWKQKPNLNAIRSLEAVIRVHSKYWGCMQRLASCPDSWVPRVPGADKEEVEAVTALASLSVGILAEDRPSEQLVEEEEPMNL

COc1ccc2[nH]c(C)c(CC(=O)N[C@@H](CCCCCC(C)=O)C(=O)NCCc3c(-c4ccccc4)[nH]c4ccccc34)c2c1
microsomal CLint [1]: > 300 µL/min/mg
pIC50 [2]: 6.14

COc1cc(NCc2ccc(/C=C/C(=O)Nc3ccccc3N)cc2)cc(OC)c1OC
pIC50 [3]: 5.70
inhibition in vivo at 70 mg/kg [4]: 40%
inhibition in vivo at 60 mg/kg [5]: 16%
inhibition in vivo at 20 mg/kg [6]: 80%
inhibition in vivo at 25 mg/kg [7]: 73%

O=C(CCc1ccccc1)Nc1ccc(C(=O)Nc2ccc(Oc3ccccc3)cc2)cc1
Activity [8]: inactive
pIC50 [9]: 5.82

O=C(/C=C/c1cccc(NS(=O)(=O)Cc2ccccc2)c1)NO
inhibition [10]: 23%

CC(C)C(=O)SCCCCCCC(=O)Nc1nc(-c2ccccc2)cs1
pEC50 [3]: 5.52
pEC50 [11]: 5.96
pEC50 [12]: 5.59
pEC50 [13]: 5.30
pEC50 [14]: 5.62
pEC50 [15]: 5.04
pEC50 [16]: 5.35
pEC50 [17]: 5.64
pEC50 [18]: 5.35
pEC50 [19]: 5.70

COc1ccc(NCc2ccc(C(=O)Nc3cc(-c4cccs4)ccc3N)cc2)cc1OC
Inhibition [20]: 72%

CC(=O)Nc1ccc(C(=O)Nc2cc(-c3cccs3)ccc2N)cc1
pIC50 [21]: < 4.70
pIC50 [22]: < 4.70
pIC50 [23]: < 4.70
pIC50 [24]: < 4.70

Nc1ccc(F)cc1NC(=O)c1ccc(CNC(=O)/C=C/c2ccccc2)cc1
GI50 [25]: 40 µM
GI50 [26]: 0.4 µM

O=C(/C=C/c1ccc(CN(CCO)CCc2cc3ccccc3[nH]2)cc1)NO
pIC50 [27]: 7.82
pIC50 [28]: 8.43
pIC50 [9]: 8.74
pIC50 [24]: 6.85

O=C(NO)c1ccc(-c2ccn(CCNCc3ccc4c(c3)OCO4)n2)s1
pIC50 [29]: 6.29
pIC50 [30]: 6.20
